In publication PMC10860144, “Exploring the Dispersion and Electrostatic Components in Arene–Arene Interactions between Ligands and G4 DNA to Develop G4-Ligands” (Journal of Medicinal Chemistry, 2024):

Columns and labels:
[1] = Intrinsic clearance in human microsomes; format: in vitro ADME; conditions: read-out: Human mics: intrinsic clearance in human microsomes
Description: All compounds (2–11, 25–29) were screened for their logD and solubility at pH 7.4 and for their intrinsic clearance in rat hepatocytes and human microsomes (Table S2). […] Replacing the basic amine side chain to a methyl substituent in the quinazolines (25–29) still retained good solubility (134 to over 1000 μM) but increased clearance in both rat hepatocytes and human microsomes. The logD was low for compounds with a basic amine side chain (2–11) and increased slightly when the amine was replaced with a methyl (25–29). As expected, additional substituents also affected the logD with the chloro-substituents increasing logD the most.
a Intrinsic clearance in rat hepatocytes ((μL/min)/10^6 cells).b Intrinsic clearance in human microsomes (μL/min/mg). […]

Pu24T c-MYC G4 structure = test: Kd for binding to the Pu24T c-MYC G4 structure (supplementary CSV); design: species or system human
Description: 5′-Cy5 labeled G4 DNAs for this study were purchased from Eurofins Genomics. Stock solutions were prepared in water at 100 μM concentration. The sequences used are listed in Supporting Information Table S1. The G4 DNA sequences were folded in KCl buffer (10 mM phosphate, 100 mM KCl, pH 7.4) by heating at 95 °C for 5 min and then cooling to room temperature. All the experiments were performed in 10 mM phosphate pH 7.4, 100 mM KCl, and 0.05% Tween20. The labeled DNA concentration is held constant at 25 nM, and ligand concentration is varied depending on ligands Kd (16 1:3 dilutions). The samples were loaded into standard MST graded glass capillaries and initial fluorescence intensity of the capillary was measured using Monolith NT.115 (Nano Temper, Germany) with 20% LED power. The change in fluorescence with ligand’s concentrations were plotted in Excel and fitted through nonlinear equation to obtain the binding constants.
The Supporting Information is available free of charge at https://pubs.acs.org/doi/10.1021/acs.jmedchem.3c02127. • Experimental procedures and data; assay data, computational results, and all cell data; NMR (^1H and ^13C) spectra for all compounds (with the exception of a few intermediates); and HPLC UV traces for the final compounds (PDF) • Molecular formula strings and Kd values for binding to the Pu24T c-MYC G4 structure (CSV)

[2] = system: Immortalized Human Total Liver Cell Population (IHTLCP); test: IHTLCP cell viability (PrestoBlue); format: cell-based; conditions: 72 h
Description: (§1) Cell viability was measured using the PrestoBlue cell viability reagent (Invitrogen) according to the manufacturer’s recommendations.
For IHTLCP, 1850 cells/well were seeded in complete Prigrow III medium (abm) in 384-wells, black walls plate (PerkinElmer) the day before the treatment. Compounds were titrated 1/2 in DMSO, dissolved in medium, and transferred to the cells to generate the indicated final concentrations (final volume 60 μL/well). 72 h after treatment, 6 μL of PrestoBlue was added per well. Cells were incubated in PrestoBlue for 1 h at 37 °C after which fluorescence (excitation 535 nm, emission 590 nm, 20 nm bandwidth) was measured using a Synergy H4Microplate Reader. Percent viability of IHTLCP cells was calculated as FLUcmp – FLUbg/FLUDMSO – FLUbg (n = 3). […]
a Intrinsic clearance in rat hepatocytes ((μL/min)/10^6 cells).b Intrinsic clearance in human microsomes (μL/min/mg).
Table S3. […]
as §1
For HeLa cells, 5000 cells/well were seeded in complete medium on 96-wells, black walls plate the day before the treatment. […] Fluorescence (excitation 560 nm, emission 590 nm, 10 nm bandwidth) was recorded using a FLUOstar Omega Microplate Reader (BMG). […]
THP1 cell viability was measured according to a previously published procedure.9

[3] = system: c-MYC Pu22 G4 DNA in the presence of competitor dsDNA (ds26); test: FRET melting competition assay with dsDNA (ds26); format: binding, human; conditions: 5 at 2 μM, 27 at 5 μM; 0–100 equiv ds26
Description: We next challenged the compounds’ G4 selectivity with a FRET melting competition assay using 5 (2 μM) and 27 (5 μM) with c-MYC Pu22 G4 DNA and increasing amounts of dsDNA (Figure 6D and Table S1). […] In addition, we investigated if we could detect any binding of the compounds to dsDNA using MST with a fluorescently labeled dsDNA (Table S1).
The FRET occurs between two dyes (5′-FAM as donor and 3′-TAMRA as acceptor) linked at both extremities of a DNA oligonucleotide. When the oligonucleotides are folded into G4 structures, the donor and acceptor are in proximity, which results in an energy transfer from the donor to the acceptor. This process can be detected by a reduction in the fluorescence emission of the donor. Fluorescence emission of the donor is recovered when the temperature increment triggers the thermal denaturation of the G4 structure. The experiments were performed in a Bio-Rad CFX96 real-time PCR device at temperatures from 10 to 95 °C at 1.5 °C/m heating rate using a 492 nm excitation wavelength and a 516 nm detection wavelength in 96-well plates. Each condition was tested in duplicate, and analysis of the data was carried out by using Excel and Origin 8 software. […] The stabilization (ΔTm) is calculated from comparison of Tm of the fluorescently labeled oligonucleotide in the presence or absence of the ligand.

Compound	microsomal CLint [1]	Kd (Pu24T c-MYC G4 structure)	IC50 [2]	change in compound-induced thermal stability of c-MYC Pu22 G4 DNA with increasing dsDNA [3]
Cc1cc(NCCCN(C)C)nc(Nc2ncc3ccccc3n2)n1 [Compound 2, N4-(3-(Dimethylamino)propyl)-6-methyl-N2-(quinazolin-2-yl)pyrimidine-2,4-diamine]	< 3 µL/min/mg	1400 ± 300 nM	–	–
Cc1cc(C)c2nc(Nc3nc(C)cc(NCCCN(C)C)n3)nc(C)c2c1 [Compound 5, N4-(3-(Dimethylamino)propyl)-6-methyl-N2-(4,6,8-trimethylquinazolin-2-yl)pyrimidine-2,4-diamine]	< 3 µL/min/mg	50 ± 4 nM	640 nM	No significant change
Cc1cc(C)c2nc(Nc3nc(C)cc(C)n3)nc(C)c2c1 [Compound 27, N-(4,6-Dimethylpyrimidin-2-yl)-4,6,8-trimethylquinazolin-2-amine]	140 µL/min/mg	800 ± 100 nM	35000 nM	No significant change
